Active and inactive are the calls of the source.
What was measured:
HEK293 [1] = assay: Fluorescence-based counterscreen for potentiators or agonists of NPY-Y2: cell-based high-throughput dose response assay to identify inhibitors of cyclic nucleotide gated ion channel (CNGC) activity. In this assay, the parental HEK293 cell line transfected with a cyclic-nucleotide gated ion channel (CNGC)-based cAMP sensor is used to measure inhibition of isoproterenol-induced CNGC activity by test compound.; type: functional; details: Homo sapiens
[2] = target: T1, Neuropeptide Y receptor type 2 (Homo sapiens, UniProt P49146); assay: Fluorescence-based cell-based high-throughput dose response assay for agonists of NPY-Y2. [Related pubchem assays: 1703 (Screening assay (CNGC inhibitors).), 1359 (Screening assay (NPY-Y2 potentiators or agonists).), 1304 (Screening assay (NPY-Y1 potentiators or agonists).), 1710 (Screening assay (NPY-Y2 agonists).), 1791 (Summary AID.)]; type: functional
T1 sequence (P49146 whole entry): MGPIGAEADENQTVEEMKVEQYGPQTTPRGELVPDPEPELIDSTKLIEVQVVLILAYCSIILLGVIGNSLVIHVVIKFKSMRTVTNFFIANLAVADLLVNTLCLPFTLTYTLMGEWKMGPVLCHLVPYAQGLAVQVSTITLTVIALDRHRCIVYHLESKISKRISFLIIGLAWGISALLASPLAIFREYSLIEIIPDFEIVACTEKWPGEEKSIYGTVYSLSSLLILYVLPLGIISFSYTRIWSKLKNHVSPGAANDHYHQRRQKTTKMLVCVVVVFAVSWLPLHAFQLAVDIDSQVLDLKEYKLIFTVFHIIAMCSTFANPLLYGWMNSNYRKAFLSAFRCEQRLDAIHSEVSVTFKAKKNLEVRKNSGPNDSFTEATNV

[3] = target: T2, Neuropeptide Y receptor type 1 (Homo sapiens, UniProt P25929); assay: Fluorescence-based counterscreen for agonists of NPY-Y2: cell-based high-throughput dose response assay for agonists of NPY-Y1.; type: functional
T2 sequence (P25929 whole entry): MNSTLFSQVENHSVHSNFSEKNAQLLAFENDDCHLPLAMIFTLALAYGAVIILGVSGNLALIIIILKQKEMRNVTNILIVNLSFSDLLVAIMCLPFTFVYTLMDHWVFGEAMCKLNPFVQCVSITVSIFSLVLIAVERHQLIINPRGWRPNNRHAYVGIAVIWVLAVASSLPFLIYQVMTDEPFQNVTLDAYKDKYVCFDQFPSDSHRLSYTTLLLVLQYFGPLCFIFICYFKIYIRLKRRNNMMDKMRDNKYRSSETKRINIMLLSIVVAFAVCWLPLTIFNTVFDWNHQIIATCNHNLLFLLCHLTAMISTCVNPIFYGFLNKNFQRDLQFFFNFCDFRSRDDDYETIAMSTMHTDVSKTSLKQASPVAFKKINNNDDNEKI

[4] = target: T3, RNA-binding protein pos-1 (Caenorhabditis elegans, UniProt G5EF15); assay: inhibitors of POS-1/mex-3 RNA binding, dose response, biochemical, fluorescence polarization (AID 1964);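 note: purified POS-1 fused to maltose binding protein made in E. coli; potency of compounds blocking POS-1 binding to fluorescent RNA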
T3 sequence (G5EF15 whole entry): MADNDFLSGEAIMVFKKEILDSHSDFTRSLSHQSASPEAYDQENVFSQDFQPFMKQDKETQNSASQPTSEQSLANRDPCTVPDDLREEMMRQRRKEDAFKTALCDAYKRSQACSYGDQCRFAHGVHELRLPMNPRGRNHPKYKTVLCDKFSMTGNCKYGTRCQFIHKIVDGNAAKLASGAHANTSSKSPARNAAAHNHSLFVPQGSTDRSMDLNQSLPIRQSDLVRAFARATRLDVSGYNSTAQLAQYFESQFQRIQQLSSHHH

[5] = Counterscreen for IDE inhibitors: Luminescence-based cell-based high throughput dose response assay to identify compounds that are cytotoxic to HEK cells. [Related pubchem assays: 434962 (Primary screen (IDE inhibitors in singlicate)), 449730 (Counterscreen (Cytotoxicity in triplicate)), 435028 (Confirmation (IDE inhibitors in triplicate)) …; type: functional; details: HEK293
Insulin-degrading enzyme = target: T4, Insulin-degrading enzyme (Homo sapiens, UniProt P14735); assay: Dose Response: Fluorescence polarization-based cell-based high throughput dose response assay for inhibitors of insulin-degrading enzyme (IDE). [Related pubchem assays: 434962 (Primary screen (IDE inhibitors in singlicate)), 449730 (Counterscreen (Cytotoxicity in triplicate)), 435028 (Confirmation (IDE inhibitors in triplicate)), 434984 (Summary …; type: functional
T4 sequence (P14735 whole entry): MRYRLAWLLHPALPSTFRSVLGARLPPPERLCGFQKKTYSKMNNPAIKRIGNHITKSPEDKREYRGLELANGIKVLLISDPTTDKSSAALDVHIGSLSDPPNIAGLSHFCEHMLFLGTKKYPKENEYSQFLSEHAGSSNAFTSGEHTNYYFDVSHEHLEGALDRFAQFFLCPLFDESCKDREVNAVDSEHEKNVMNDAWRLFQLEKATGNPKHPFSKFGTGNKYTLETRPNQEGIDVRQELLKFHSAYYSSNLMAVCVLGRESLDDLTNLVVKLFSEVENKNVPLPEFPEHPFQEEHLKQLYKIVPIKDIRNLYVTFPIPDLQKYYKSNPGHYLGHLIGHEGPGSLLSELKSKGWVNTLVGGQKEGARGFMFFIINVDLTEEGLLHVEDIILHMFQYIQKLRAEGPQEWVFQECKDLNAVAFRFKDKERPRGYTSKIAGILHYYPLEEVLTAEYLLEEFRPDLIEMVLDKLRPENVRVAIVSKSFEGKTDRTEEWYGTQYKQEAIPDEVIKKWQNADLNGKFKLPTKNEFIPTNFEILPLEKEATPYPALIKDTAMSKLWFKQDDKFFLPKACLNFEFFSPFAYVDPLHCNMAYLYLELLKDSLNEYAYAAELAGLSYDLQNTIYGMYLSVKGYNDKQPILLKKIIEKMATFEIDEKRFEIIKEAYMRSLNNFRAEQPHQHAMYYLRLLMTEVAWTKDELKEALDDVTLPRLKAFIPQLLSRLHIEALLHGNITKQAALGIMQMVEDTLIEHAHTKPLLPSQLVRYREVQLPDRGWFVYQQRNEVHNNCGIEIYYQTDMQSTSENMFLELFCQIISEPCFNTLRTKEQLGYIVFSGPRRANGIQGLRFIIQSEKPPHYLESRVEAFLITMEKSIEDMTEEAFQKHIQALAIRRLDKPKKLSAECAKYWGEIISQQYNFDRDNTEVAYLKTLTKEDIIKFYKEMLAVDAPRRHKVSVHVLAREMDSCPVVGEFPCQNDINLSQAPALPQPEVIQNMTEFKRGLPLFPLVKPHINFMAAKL

[6] = enhancers of respiration in Yfh1-depleted yeast, dose response, Friedreich's ataxia, plus single-dose screen (AID 1465); type: functional;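 note: yeast depleted of Yfh1p frataxin homolog grown on glycerol needing respiration; WST-1 tetrazolium dye reduction as measure of cellular dehydrogenase metabolic activity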
HEK293 [7] = assay: cells; type: functional, cell-based; details: Homo sapiens
[8] = target: T5, Nuclear receptor subfamily 0 group B member 1 (Homo sapiens, UniProt P51843); assay: Luminescence-based cell-based high throughput dose response assay for inhibitors of the orphan nuclear receptor subfamily 0, group B, member 1 (DAX1; NR0B1). [Related pubchem assays (depositor defined):AID504766, AID504790]; type: functional
T5 sequence (P51843 whole entry): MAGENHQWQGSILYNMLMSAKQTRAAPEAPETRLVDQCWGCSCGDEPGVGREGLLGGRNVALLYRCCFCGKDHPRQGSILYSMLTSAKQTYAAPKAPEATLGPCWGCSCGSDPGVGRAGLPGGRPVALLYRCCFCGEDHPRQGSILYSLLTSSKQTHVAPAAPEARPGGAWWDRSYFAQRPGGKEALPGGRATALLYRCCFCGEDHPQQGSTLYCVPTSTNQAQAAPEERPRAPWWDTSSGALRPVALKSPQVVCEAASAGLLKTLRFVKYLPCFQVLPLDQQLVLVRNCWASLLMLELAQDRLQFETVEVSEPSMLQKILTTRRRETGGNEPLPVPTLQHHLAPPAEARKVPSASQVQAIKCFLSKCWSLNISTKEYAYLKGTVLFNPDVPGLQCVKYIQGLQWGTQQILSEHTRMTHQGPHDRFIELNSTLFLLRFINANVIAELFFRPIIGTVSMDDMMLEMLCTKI

[9] = target: Serine/threonine-protein phosphatase PP1-alpha catalytic subunit (Homo sapiens, UniProt P62136); assay: PP1 phosphatase inhibitors, dose response, biochemical, fluorescence (AID 2403);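 note: phosphatase turnover of OMFP into fluorescent 3-O-methylfluorescein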
[10] = inhibitors of intracellular T. cruzi replication, confirmation, NIH3T3 host cells, beta-gal luminescence (AID 2044); type: functional, cell-based;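 note: intracellular parasites grown in NIH/3T3 mouse fibroblasts as host cells; luminescent beta-galactosidase reporter signal from transgenic T. cruzi replicating inside host cells; inhibitors lower the luminescence signal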
[11] = target: Serine/threonine-protein phosphatase (Homo sapiens, UniProt Q9BPW0); assay: Counterscreen for inhibitors of PP1: fluorescence-based biochemical high throughput dose response assay to identify inhibitors of Protein Phosphatase 5 (PP5). [Related pubchem assays: 2034 (Summary (PP5 inhibitors)), 1987 (PP5 inhibitors in singlate), 2235 (PP1 inhibitors in singlate)]
[12] = cytotoxicity toward NIH3T3 fibroblasts, dose response, counter-screen, cell-based, ATP luminescence, mouse fibroblasts (AID 2010); type: functional;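 note: cells exposed to compound for about 90 hours before reading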

Chain of Serine/threonine-protein phosphatase (Q9BPW0 whole entry): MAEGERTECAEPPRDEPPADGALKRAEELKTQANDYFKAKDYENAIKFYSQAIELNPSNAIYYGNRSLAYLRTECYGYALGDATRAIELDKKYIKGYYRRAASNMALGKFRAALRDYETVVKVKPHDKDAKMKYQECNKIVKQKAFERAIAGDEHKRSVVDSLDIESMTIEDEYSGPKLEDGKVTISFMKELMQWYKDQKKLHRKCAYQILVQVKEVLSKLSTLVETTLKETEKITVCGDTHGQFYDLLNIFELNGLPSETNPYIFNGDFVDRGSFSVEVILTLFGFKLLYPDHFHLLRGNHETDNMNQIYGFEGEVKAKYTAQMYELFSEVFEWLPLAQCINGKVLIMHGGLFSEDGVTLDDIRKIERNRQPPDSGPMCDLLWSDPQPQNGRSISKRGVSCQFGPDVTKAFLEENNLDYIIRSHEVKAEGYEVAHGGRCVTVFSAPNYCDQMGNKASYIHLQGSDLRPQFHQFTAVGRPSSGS
Chain of Serine/threonine-protein phosphatase PP1-alpha catalytic subunit (P62136 whole entry): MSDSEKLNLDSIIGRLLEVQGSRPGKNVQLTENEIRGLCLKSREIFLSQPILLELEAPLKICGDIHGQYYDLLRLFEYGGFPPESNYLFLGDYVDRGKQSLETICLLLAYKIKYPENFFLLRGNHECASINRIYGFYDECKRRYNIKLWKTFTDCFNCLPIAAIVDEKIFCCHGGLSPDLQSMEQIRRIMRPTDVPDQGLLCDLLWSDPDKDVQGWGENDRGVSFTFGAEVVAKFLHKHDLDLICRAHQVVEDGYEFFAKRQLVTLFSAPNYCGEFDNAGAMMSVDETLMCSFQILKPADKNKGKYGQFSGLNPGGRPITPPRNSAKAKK

COC(=O)/C(=C/c1cn(C(C)=O)c2ccccc12)[N+](=O)[O-]
EC50 (HEK293 [1]): 12.3 µM (not active)
EC50 [2]: > 35.4 µM (not active)
EC50 [3]: > 35.4 µM (not active)

CCN(CC)c1ccc(/C=C2\C(=O)NC(=S)N(C)C2=O)o1
EC50 [4]: > 300 µM (inconclusive)
IC50 [5]: > 55.7 µM (not active)
IC50 (Insulin-degrading enzyme): 14 µM (not active)
EC50 [6]: > 100 µM (active)
IC50 (HEK293 [7]): > 67.6 µM (inactive)
IC50 [8]: > 67.6 µM (inactive)

COc1cnc(-c2ccccn2)nc1Sc1ccccc1
IC50 [9]: 7.03 µM (active)
EC50 [10]: 2.47 µM (active)
IC50 [11]: > 67 µM (not active)
EC50 [12]: > 60 µM (not active)

Source: ChEMBL document CHEMBL1201862, “PubChem BioAssay data set” (2004)
